# From US8846928B2 (Portola Pharmaceuticals, Inc., priority 2010, dated 2014)
# Target: T1, full length active recombinant SYK enzyme (Homo sapiens, UniProt P43405)
# T1 construct: full length active recombinant SYK enzyme (Millipore, Calif.); purchased Millipore
# Assay: Inhibition of Syk tyrosine phosphorylation activity (LANCE TR-FRET kinase assay)
# Assay type: biochemical
row,IC50,Structure (SMILES)
1,1 to 10 nM,"Cn1cnc2cc(Nc3nc(N[C@@H]4CCCC[C@@H]4N)c(F)cc3C(N)=O)ccc21 [Example 153, 6-((1R,2S)-2-aminocyclohexylamino)-5-fluoro-2-(1-methyl-1H-benzo[d]imidazol-5-ylamino)nicotinamide]"
2,100 to 1000 nM,"Cc1cc(Nc2cc(N[C@H](Cc3ccncc3)C(N)=O)c(F)cc2C(N)=O)sn1 [Example 38, (R)-4-(1-amino-1-oxo-3-(pyridin-4-yl)propan-2-ylamino)-5-fluoro-2-(3-methylisothiazol-5-ylamino)benzamide]"
3,10 to 100 nM,CC[C@@H](Nc1nc(Nc2ccc3cnccc3c2)c(C(N)=O)cc1F)C(N)=O [Example 99]
4,1 to 10 nM,"NC(=O)c1cc(F)c(N[C@@H]2CCCC[C@@H]2N)nc1Nc1cc(F)cc(F)c1 [Example 324, 6-((1R,2S)-2-aminocyclohexylamino)-2-(3,5-difluorophenylamino)-5-fluoronicotinamide]"
5,10 to 100 nM,"NC(=O)c1cc(F)c(N[C@@H]2CCCC[C@@H]2N)nc1Nc1cccc(N2CCOCC2)c1 [Example 48, 6-((1R,2S)-2-aminocyclohexylamino)-5-fluoro-2-(3-morpholinophenylamino)nicotinamide]"
6,10 to 100 nM,"NC(=O)c1cc(F)c(N[C@@H]2CCCC[C@@H]2N)nc1Nc1ccc(N2CCOCC2)cc1 [Example 54, 6-((1R,2S)-2-aminocyclohexylamino)-5-fluoro-2-(4-morpholinophenylamino)nicotinamide]"
7,10 to 100 nM,"NC(=O)c1cc(F)c(N[C@@H]2CCNC2)nc1Nc1ccc2ncccc2c1 [Example 351, (R)-5-fluoro-6-(pyrrolidin-3-ylamino)-2-(quinolin-6-ylamino)nicotinamide]"
8,10 to 100 nM,"NC(=O)c1cc(F)c(N[C@@H]2CCCC[C@@H]2N)nc1Nc1cnc2nccnc2c1 [Example 77, 6-((1R,2S)-2-aminocyclohexylamino)-5-fluoro-2-(pyrido[3,2-b]pyrazin-7-ylamino)nicotinamide]"
9,10 to 100 nM,"COC[C@@H](Nc1cc(Nc2cc(C)ns2)c(C(N)=O)cc1F)C(N)=O [Example 40, (R)-4-(1-amino-3-methoxy-1-oxopropan-2-ylamino)-5-fluoro-2-(3-methylisothiazol-5-ylamino)benzamide]"
10,10 to 100 nM,"NC(=O)c1cc(F)c(N[C@@H]2CCOC[C@@H]2N)nc1Nc1cnc2ccccc2c1 [Example 275, 6-((3R,4R)-3-aminotetrahydro-2H-pyran-4-ylamino)-5-fluoro-2-(quinolin-3-ylamino)nicotinamide]"
11,1 to 10 nM,"Cc1cc(Nc2nc(N[C@@H]3CCCC[C@@H]3N)c(F)cc2C(N)=O)sn1 [Example 82, 6-((1R,2S)-2-aminocyclohexylamino)-5-fluoro-2-(3-methylisothiazol-5-ylamino)nicotinamide]"
12,1 to 10 nM,N#Cc1cc(C(N)=O)c(Nc2ccc3[nH]ncc3c2)nc1N[C@@H]1CCCC[C@@H]1N [Example 117]
13,> 1000 nM,"NC(=O)c1cnc(N[C@@H]2CCCC[C@@H]2N)cc1Nc1cnn2ccccc12 [Example 421, 6-((1R,2S)-2-aminocyclohexylamino)-4-(pyrazolo[1,5-a]pyridin-3-ylamino)nicotinamide]"
14,1 to 10 nM,"NC(=O)c1cc(F)c(N[C@@H]2CCCC[C@@H]2N)nc1Nc1cncc2ccccc12 [Example 71, 6-((1R,2S)-2-aminocyclohexylamino)-5-fluoro-2-(isoquinolin-4-ylamino)nicotinamide]"
15,100 to 1000 nM,"Cc1cc(C)cc(Nc2cc(N[C@@H]3CCCC[C@@H]3N)ccc2C(N)=O)c1 [Example 4, 4-((1R,2S)-2-aminocyclohexylamino)-2-(3,5-dimethylphenylamino)benzamide]"
16,1 to 10 nM,NC(=O)c1ccc(N[C@@H]2CCCC[C@@H]2N)nc1Nc1cncc(-n2nccn2)c1 [Example 158]
17,1 to 10 nM,"CC[C@@H](Nc1ccc(C(N)=O)c(Nc2cnc3ccccc3c2)n1)C(N)=O [Example 203, (R)-6-(1-amino-1-oxobutan-2-ylamino)-2-(quinolin-3-ylamino)nicotinamide]"
18,10 to 100 nM,"NC(=O)c1cc(F)c(N[C@@H](C(N)=O)C2CC2)nc1Nc1cnc2ccccc2c1 [Example 196, (R)-6-(2-amino-1-cyclopropyl-2-oxoethylamino)-5-fluoro-2-(quinolin-3-ylamino)nicotinamide]"
19,100 to 1000 nM,"N#Cc1cc(C(N)=O)c(Nc2cccc(-n3nccn3)c2)nc1NC[C@@H](N)C1CC1 [Example 111, (S)-2-(3-(2H-1,2,3-triazol-2-yl)phenylamino)-6-(2-amino-2-cyclopropylethylamino)-5-cyanonicotinamide]"
20,100 to 1000 nM,"Cc1cc(Nc2cc(N[C@H](C)C(N)=O)ccc2C(N)=O)sn1 [Example 10, (R)-4-(1-amino-1-oxopropan-2-ylamino)-2-(3-methylisothiazol-5-ylamino)benzamide]"
21,10 to 100 nM,NC(=O)c1cc(F)c(N[C@H]2[C@@H](N)CCCC2(F)F)nc1Nc1cncc(F)c1 [Example 348]
22,10 to 100 nM,Cc1ccc(Nc2nc(N[C@H]3[C@@H](N)CCCC3(F)F)c(F)cc2C(N)=O)cc1 [Example 346]

row,IC50,Structure (SMILES)
1,100 to 1000 nM,"CCC[C@@H](Nc1nc(Nc2ccc3cccnc3c2)c(C(N)=O)cc1F)C(N)=O [Example 201, (R)-6-(1-amino-1-oxopentan-2-ylamino)-5-fluoro-2-(quinolin-7-ylamino)nicotinamide]"
2,1 to 10 nM,"NC(=O)c1cc(F)c(N[C@@H]2CCCC[C@@H]2N)nc1Nc1cccc(-n2cnnn2)c1 [Example 44, 2-(3-(1H-tetrazol-1-yl)phenylamino)-6-((1R,2S)-2-aminocyclohexylamino)-5-fluoronicotinamide]"
3,1 to 10 nM,"NC(=O)c1cc(F)c(N[C@@H]2CCCC[C@@H]2N)nc1Nc1cnc2cccnc2c1 [Example 183, 2-(1,5-naphthyridin-3-ylamino)-6-((1R,2S)-2-aminocyclohexylamino)-5-fluoronicotinamide]"
4,100 to 1000 nM,"COc1ncc(Nc2nc(N[C@@H]3CCCC[C@@H]3N)c(F)cc2C(N)=O)cn1 [Example 166, 6-((1R,2S)-2-aminocyclohexylamino)-5-fluoro-2-(2-methoxypyrimidin-5-ylamino)nicotinamide]"
5,1 to 10 nM,"NC(=O)c1cc(F)c(N[C@@H]2CCCC[C@@H]2N)nc1Nc1cc(F)cc(Cl)c1 [Example 325, 6-((1R,2S)-2-aminocyclohexylamino)-2-(3-chloro-5-fluorophenylamino)-5-fluoronicotinamide]"
6,10 to 100 nM,"CC[C@@H](Nc1nc(Nc2ccc3cccnc3c2)c(C(N)=O)cc1F)C(N)=O [Example 97, (R)-6-(1-amino-1-oxobutan-2-ylamino)-5-fluoro-2-(quinolin-7-ylamino)nicotinamide]"
7,1 to 10 nM,NC(=O)c1cc(F)c(N[C@@H]2CCCC[C@@H]2N)nc1Nc1csc2ncccc12 [Example 393]
8,100 to 1000 nM,"Cc1cc(Nc2cc(N[C@H](CO)C(N)=O)ccc2C(N)=O)sn1 [Example 16, (R)-4-(1-amino-3-hydroxy-1-oxopropan-2-ylamino)-2-(3-methylisothiazol-5-ylamino)benzamide]"
9,10 to 100 nM,"NC(=O)c1cc(F)c(NC(CC(F)(F)F)C(N)=O)nc1Nc1cnc2ccccc2c1 (stereo not shown) [Example 377, 6-(1-amino-4,4,4-trifluoro-1-oxobutan-2-ylamino)-5-fluoro-2-(quinolin-3-ylamino)nicotinamide]"
10,10 to 100 nM,"Cc1ccccc1Nc1nc(N[C@@H]2CCCC[C@@H]2N)c(F)cc1C(N)=O [Example 313, 6-((1R,2S)-2-aminocyclohexylamino)-5-fluoro-2-(o-tolylamino)nicotinamide]"
11,10 to 100 nM,"CC[C@@H](Nc1ccc(C(N)=O)c(Nc2ccc3scnc3c2)n1)C(N)=O [Example 207, (R)-6-(1-amino-1-oxobutan-2-ylamino)-2-(benzo[d]thiazol-5-ylamino)nicotinamide]"
12,1 to 10 nM,"NC(=O)c1ccc(N[C@@H]2CCCC[C@@H]2N)nc1Nc1cnc2ccccc2c1 [Example 185, 6-((1R,2S)-2-aminocyclohexylamino)-2-(quinolin-3-ylamino)nicotinamide]"
13,100 to 1000 nM,"CC(C)Cn1ccc2c(Nc3nc(N[C@@H]4CCCC(F)(F)[C@@H]4N)c(F)cc3C(N)=O)cccc21 [Example 392, 6-((1R,2R)-2-amino-3,3-difluorocyclohexylamino)-5-fluoro-2-(1-isobutyl-1H-indol-4-ylamino)nicotinamide]"
14,1 to 10 nM,"Cc1cc(Nc2cc(N[C@H](Cc3ccccc3)C(N)=O)c(F)cc2C(N)=O)sn1 [Example 24, (R)-4-(1-amino-1-oxo-3-phenylpropan-2-ylamino)-5-fluoro-2-(3-methylisothiazol-5-ylamino)benzamide]"
15,10 to 100 nM,"CC[C@@H](Nc1nc(Nc2ccc3ncsc3c2)c(C(N)=O)cc1F)C(N)=O [Example 234, (R)-6-(1-amino-1-oxobutan-2-ylamino)-5-fluoro-2-(benzo[d]thiazol-6-ylamino)nicotinamide]"
16,1 to 10 nM,"Cn1ccc2cc(Nc3nc(N[C@@H]4CCCC[C@@H]4N)ccc3C(N)=O)ccc21 [Example 397, 6-((1R,2S)-2-aminocyclohexylamino)-2-(1-methyl-1H-indol-5-ylamino)nicotinamide]"
17,> 1000 nM,"Cn1cc(Nc2cc(N[C@@H]3CCCC[C@@H]3N)ccc2C(N)=O)cn1 [Example 8, 4-((1R,2S)-2-aminocyclohexylamino)-2-(1-methyl-1H-pyrazol-4-ylamino)benzamide]"
18,1 to 10 nM,COc1cncc(Nc2nc(N[C@@H]3CCCC[C@@H]3N)ccc2C(N)=O)c1 [Example 164]
19,1 to 10 nM,"NC(=O)c1cc(F)c(N[C@@H]2CCCC[C@@H]2N)nc1Nc1ccn2ccnc2c1 [Example 62, 6-((1R,2S)-2-aminocyclohexylamino)-5-fluoro-2-(imidazo[1,2-a]pyridin-7-ylamino)nicotinamide]"
20,1 to 10 nM,NC(=O)c1ccc(N[C@@H]2CCCC[C@@H]2N)nc1Nc1cnc2cccnc2c1 [Example 184]
21,1 to 10 nM,"NC(=O)c1cc(F)c(N[C@@H]2CCCC[C@@H]2N)nc1Nc1ccccc1 [Example 312, 6-((1R,2S)-2-aminocyclohexylamino)-5-fluoro-2-(phenylamino)nicotinamide]"
